The numbers were not newly measured in patent US20260263463A1, “FORMULATIONS OF DANICOPAN AND METHODS OF USE THEREOF” (Alexion Pharmaceuticals, Inc., priority 2023, published 2026), which cites them from elsewhere.

The conditions of this data set: doses of up to 1,600 mg; cited from earlier work.

As to `CC(=O)c1nn(CC(=O)N2C[C@H](F)C[C@H]2C(=O)Nc2cccc(Br)n2)c2ccc(-c3cnc(C)nc3)cc12` [Danicopan, danicopan], the adverse effects result is “no adverse effects”.
